SMILES strings stand for the structures.

The target of this assay is T1, human FXRalpha ligand binding domain (LBD) (Homo sapiens, UniProt Q96RI1).
T1 construct: made in house; host or cells: E. coli BL21(DE3), vector pDEST15
T1 sequence (Q96RI1 187-472 isoform Q96RI1-2): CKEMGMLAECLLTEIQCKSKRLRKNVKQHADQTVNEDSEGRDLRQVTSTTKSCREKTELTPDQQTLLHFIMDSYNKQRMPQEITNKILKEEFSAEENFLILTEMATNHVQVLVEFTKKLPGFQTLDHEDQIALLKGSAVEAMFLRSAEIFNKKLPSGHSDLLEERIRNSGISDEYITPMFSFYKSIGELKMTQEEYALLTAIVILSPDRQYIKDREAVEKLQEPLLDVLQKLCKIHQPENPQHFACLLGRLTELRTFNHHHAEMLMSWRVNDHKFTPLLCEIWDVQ
Put plainly: FRET activity assay (ligand mediated cofactor peptide interaction, LANCE). The assay is classed as biochemical. The note with it: GST-FXR-LBD / biotinylated SRC-1 peptide (676-700). The method, then: Determination of a ligand mediated cofactor peptide interaction to quantify ligand binding to the nuclear receptor Farnesoid X Receptor (FXR) was performed as follows:
Preparation of human farnesoid X receptor (FXR) alpha ligand binding domain: The human FXRalpha ligand binding domain (LBD) was expressed in E. coli strain BL21(DE3) as an N-terminally glutathione-[…] (GST) tagged fusion protein. The DNA encoding the FXR ligand binding domain was cloned into vector pDEST15 (Invitrogen). Expression was under control of an IPTG inducible T7 promoter. The amino acid boundaries of the ligand binding domain were amino acids 187-472 of Database entry NM_005123 (RefSeq). Expression and purification of the FXR-LBD: An overnight preculture of a transformed E. coli strain was diluted 1:20 in LB-Ampicillin medium and grown at 30° C. to an optical density of OD600=0.4-0.6. Gene expression was then induced by addition of 0.5 mM IPTG. Cells were incubated an additional 6 h at 30° C., 180 rpm. Cells were collected by centrifugation (7000×g, 7 min, room temperature). Per liter of original cell culture, cells were resuspended in 10 ml lysis buffer (50 mM Glucose, 50 mM Tris pH 7.9, 1 mM EDTA and 4 mg/ml lysozyme) and left on ice for 30 min. Cells were then subjected to sonication and cell debris removed via centrifugation (22000×g, 30 min, 4° C.). Per 10 ml of supernatant 0.5 ml prewashed Glutathione 4B sepharose slurry (Qiagen) was added and the suspension kept slowly rotating for 1 h at 4° C. Glutathione 4B sepharose beads were pelleted by centrifugation (2000 g, 15 sec, 4° C.) and washed twice in wash buffer (25 mM Tris, 50 mM KCl, 4 mM MgCl2 and 1M NaCl). The pellet was resuspended in 3 ml elution buffer per liter of original culture (elution buffer: 20 mM Tris, 60 mM KCl, 5 mM MgCl2 and 80 mM glutathione added immediately prior to use as powder). The suspension was left rotating for 15 min at 4° C., the beads pelleted and eluted again with half the volume of elution buffer than the first time. The eluates were pooled and dialysed overnight in 20 mM Hepes buffer (pH 7.5) containing 60 mM KCl, 5 mM MgCl2 as well as 1 mM dithiothreitol and 10% (v/v) glycerol. The protein was analysed by SDS-Page.
The method measures the ability of putative ligands to modulate the interaction between the purified bacterial expressed FXR ligand binding domain (LBD) and a synthetic biotinylated peptide based on residues 676-700 of SRC-1 (LCD2, 676-700). The sequence of the peptide used was B-[…]-COOH where the N-terminus was biotinylated (B). The ligand binding domain (LBD) of FXR was expressed as fusion protein with GST in BL-21 cells using the vector pDEST15. Cells were lysed by sonication, and the fusion proteins purified over glutathione sepharose (Pharmacia) according to the manufacturers instructions. For screening of compounds for their influence on the FXR-peptide interaction, the Perkin Elmer LANCE technology was applied. This method relies on the binding dependent energy transfer from a donor to an acceptor fluorophor attached to the binding partner of interest. For ease of handling and reduction of background from compound fluorescence LANCE technology makes use of generic fluorophore labels and time resolved detection Assays were done in a final volume of 2 5 μl in a 384 well plate, in a Tris-based buffer (20 mM Tris-HCl pH 7,5; 60 mM KCl, 5 mM MgCl2; 35 ng/μl BSA), containing 20-60 ng/well recombinantly expressed FXR-LBD fused to GST, 200-600 nM N-terminally biotinylated peptide, representing SRC1 aminoacids 676-700, 200 ng/well Streptavidin-xIAPC conjugate(Prozyme) and 6-10 ng/well Eu W1024 antiGST (Perkin Elmer). DMSO content of the samples was kept at 1%. After generation of the assay mix and diluting the potentially FXR modulating ligands, the assay was equilibrated for one hour in the dark at room temperature in FIA-plates black 384 well (Greiner). […]
A general note: In TR-FRET formats the signal depends on donor and acceptor labels being close together.
In turn, `Cc1nc(OCc2c(-c3c(Cl)cccc3Cl)noc2C(C)C)ccc1NC(=O)c1ccc(C(=O)O)cc1` [Example 1, N-{6[3-(2,6-dichloro-phenyl)-5-isopropyl-isoxazol-4-ylmethoxy]-2-methyl-pyridin-3-yl}-terephthalamic acid] had an IC50 not above 1000 nM.

Molecule `Cc1nc(OCc2c(-c3c(Cl)cccc3Cl)noc2C(C)C)ccc1N(C)C(=O)c1ccc(C(=O)O)cc1` [Example 2, 4-((6-((3-(2,6-Dichlorophenyl)-5-isopropylisoxazol-4-yl)methoxy)-2-methylpyridin-3-yl)(methyl)carbamoyl)benzoic acid] had an IC50 not above 1000 nM.

In the case of `Cc1nc(OCc2c(-c3c(Cl)cccc3Cl)noc2C(C)C)ccc1NS(=O)(=O)c1ccc(C(=O)O)cc1` [Example 3, 4-{6-[3-(2,6-Dichloro-phenyl)-5-isopropyl-isoxazol-4-ylmethoxy]-2-methyl-pyridin-3-ylsulfamoyl}-benzoic acid], the IC50 is not above 1000 nM.

Regarding `COC(=O)c1ccc(C(=O)Nc2ccc(OCc3c(-c4c(Cl)cccc4Cl)noc3C(C)C)nc2C(F)(F)F)cc1` [Example 5, N-{6-[3-(2,6-dichloro-phenyl)-5-isopropyl-isoxazol-4-ylmethoxy]-2-trifluoromethyl-pyridin-3-yl}-terephthalamic acid methyl ester], the IC50 lay in the range of 1000 to 10000 nM.

Molecule `CC(C)c1onc(-c2c(Cl)cccc2Cl)c1COc1ccc(NS(=O)(=O)c2ccc(C(=O)O)cc2)c(C(F)(F)F)n1` [Example 8, 4-{6-[3-(2,6-dichloro-phenyl)-5-isopropyl-isoxazol-4-ylmethoxy]-2-trifluoromethyl-pyridin-3-ylsulfamoyl}-benzoic acid] displayed an IC50 of 1000 to 10000 nM.

`CC(C)c1onc(-c2c(Cl)cccc2Cl)c1COc1ccc(N(C)S(=O)(=O)c2ccc(C(=O)O)cc2)c(C(F)(F)F)n1` [Example 9, 4({6-[3-(2,6-Dichloro-phenyl)-5-isopropyl-isoxazol-4-ylmethoxy]-2-trifluoromethyl-pyridin-3-yl}-methyl-sulfamoyl)-benzoic acid] returned an IC50 not above 1000 nM.

In turn, `COc1nc(OCc2c(-c3c(Cl)cccc3Cl)noc2C(C)C)ccc1NC(=O)c1ccc(C(=O)O)cc1` [Example 10, N-{6-[3-(2,6-dichloro-phenyl)-5-isopropyl-isoxazol-4-ylmethoxy]-2-methoxy-pyridin-3-yl}-terephthalamic acid] gave a concentration for half-maximal inhibition (IC50) not above 1000 nM.

Turning to `COc1nc(OCc2c(-c3c(Cl)cccc3Cl)noc2C(C)C)ccc1N(C)C(=O)c1ccc(C(=O)O)cc1` [Example 11, N-{6-[3-(2,6-dichloro-phenyl)-5-isopropyl-isoxazol-4-ylmethoxy]-2-methoxy-pyridin-3-yl}-N-methyl-terephthalamic acid], the IC50 fell in the range of 1000 to 10000 nM.

For the molecule `COc1nc(OCc2c(-c3c(Cl)cccc3Cl)noc2C(C)C)ccc1NS(=O)(=O)c1ccc(C(=O)O)cc1` [Example 12, 4-{6[3-(2,6-dichloro-phenyl)-5-isopropyl-isoxazol-4-ylmethoxy]-2-methoxy-pyridin-3-ylsulfamoyl}-benzoic acid], the IC50 was not above 1000 nM.

Take `COc1nc(OCc2c(-c3c(Cl)cccc3Cl)noc2C(C)C)ccc1N(C)S(=O)(=O)c1ccc(C(=O)O)cc1` [Example 13, 4-({6-[3-(2,6-dichloro-phenyl)-5-isopropyl-isoxazol-4-ylmethoxy]-2-methoxy-pyridin-3-yl}-methyl-sulfamoyl)-benzoic acid]: the IC50 is not above 1000 nM.

Turning to `Cc1cc(OCc2c(-c3c(Cl)cccc3Cl)noc2C(C)C)ncc1NC(=O)c1ccc(C(=O)O)cc1` [Example 14], the IC50 was not above 1000 nM.

`Cc1onc(-c2c(Cl)cccc2Cl)c1COc1ccc(NC(=O)c2ccc(C(=O)O)cc2)cn1` [Example 16, 4-(6-((3-(2,6-dichlorophenyl)-5-methylisoxazol-4-yl)methoxy)pyridin-3-ylcarbamoyl)benzoic acid] came in with an IC50 of 1000 to 10000 nM.

Molecule `Cc1onc(-c2c(Cl)cccc2Cl)c1COc1ccc(NS(=O)(=O)c2cccc(C(=O)O)c2)cn1` [Example 17, 3-(N-(6-((3-(2,6-dichlorophenyl)-5-methylisoxazol-4-yl)methoxy)pyridin-3-yl)sulfamoyl)benzoic acid] displayed an IC50 of 1000 to 10000 nM.

The molecule `Cc1onc(-c2c(Cl)cccc2Cl)c1COc1ccc(NS(=O)(=O)c2ccc(C(=O)O)cc2)cn1` [Example 18, 4-(N-(6-((3-(2,6-dichlorophenyl)-5-methylisoxazol-4-yl)methoxy)pyridin-3-yl)sulfamoyl)benzoic acid] showed a 50% inhibitory concentration (IC50) of 1000 to 10000 nM.

`COC(=O)c1cccc(C(=O)Nc2ccc(OCc3c(-c4c(Cl)cccc4Cl)noc3C(C)C)nc2C(F)(F)F)c1` [Example 20, N-(6-[3-(2,6-Dichloro-phenyl)-5-isopropyl-isoxazol-4-ylmethoxy]-2-trifluoromethyl-pyridin-3-yl)-isophthalamic acid methyl ester] registered an IC50 of 1000 to 10000 nM.

For the molecule `CC(C)c1onc(-c2c(Cl)cccc2Cl)c1COc1ccc(N(C)C(=O)c2cccc(C(=O)O)c2)c(C(F)(F)F)n1` [Example 22, 3-((6-((3-(2,6-Dichlorophenyl)-5-isopropylisoxazol-4-yl)methoxy)-2-(trifluoromethyl)pyridin-3-yl)(methyl)carbamoyl)benzoic acid], the IC50 was not above 1000 nM.

`CC(C)c1onc(-c2c(Cl)cccc2Cl)c1COc1cnc(N(C)Cc2ccc(C(=O)O)cc2)c(Cl)c1` [Example 31, 4-(((3-Chloro-5-((3-(2,6-dichlorophenyl)-5-isopropylisoxazol-4-yl)methoxy)pyridin-2-yl)(methyl)amino)methyl)benzoic acid] showed an IC50 not above 1000 nM.

As for `CC(C)c1onc(-c2c(Cl)cccc2Cl)c1COc1ccc(N(C)Cc2ccc(C(=O)OCCO)cc2)c(C(F)(F)F)n1` [Example 33, 2-Hydroxyethyl 4-(((6-((3-(2,6-dichlorophenyl)-5-isopropylisoxazol-4-yl)methoxy)-2-(trifluoromethyl)pyridin-3-yl)(methyl)amino)methyl)benzoate], the IC50 is not above 1000 nM.

As for `CC(C)c1onc(-c2c(Cl)cccc2Cl)c1COc1ccc(N(C)Cc2ccc(C(=O)OCC(O)CO)cc2)c(C(F)(F)F)n1` (centres unmarked) [Example 34, 2,3-Dihydroxypropyl 4-(((6-((3-(2,6-dichlorophenyl)-5-isopropylisoxazol-4-yl)methoxy)-2-(trifluoromethyl)pyridin-3-yl)(methyl)amino)methyl)benzoate], the IC50 was not above 1000 nM.

`CC(C)c1onc(-c2c(Cl)cccc2Cl)c1COc1ccc(N(C)Cc2ccc(C(=O)NCC(O)CO)cc2)c(C(F)(F)F)n1` (centres unmarked) [Example 35, 4-(((6-((3-(2,6-Dichlorophenyl)-5-isopropylisoxazol-4-yl)methoxy)-2-(trifluoromethyl)pyridin-3-yl)(methyl)amino)methyl)-N-(2,3-dihydroxypropyl)benzamide] yielded an IC50 not above 1000 nM.

A word on the IC50: it is the concentration at which inhibition is half-maximal. Lower therefore signals inhibition by little substance.

(Values after patent publication US20100184809A1, “Heterocyclic FXR Binding Compounds” (PHENEX PHARMACEUTICALS AG, priority 2006, published 2010).)
